This note sets out measurements from patent publication US20250195521A1 (Revolution Medicines, Inc., priority 2020, published 2025).

Assay [1] deals with NCI-H358 cells (K-Ras G12C). The assay is described as follows: CellTiter-Glo cell viability, NCI-H358. The class given is cell-based, human. The following applies: Homo sapiens, NCI-H358, 120 h, K-Ras G12C, 5-day treatment; read-out: H358 Cell Viability IC50. The procedure, abridged: (§1)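 Compounds were dispensed directly onto seeded cells and incubated until day 5, then plates were equilibrated at room temperature for about 30 min before CellTiter-Glo luminescence readout. Signals were normalized as (sample/average DMSO)×100 and fitted with a four-parameter logistic model.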
A general note: Cellular ATP, detected with luciferase, serves as a proxy for viable cell number.

For assay [2], the target named is K-Ras G12C(GMP-PNP) binding to BRAF RBD (Homo sapiens (Human), UniProt P01116+P62937, G12C). The assay is described as follows: Disruption of BRAF RBD interaction with K-Ras (FRET / MOA assay), K-Ras G12C. The class given is biochemical. The following applies: read-out: KRAS G12C FRET IC50. The procedure, abridged: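 First, test compounds in a 10-point 3-fold series (30 μM final top) were incubated for 3 hours at 25° C with nucleotide-loaded Ras, cyclophilin A and a BRAF RBD construct. Next, Eu anti-His and allophycocyanin anti-GST detection reagents were added for 1.5 hours. Finally, IC50s were derived from loss of TR-FRET signal against DMSO.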
K-Ras G12C(GMP-PNP) binding to BRAF RBD, sequence (P01116 other isoform, or with tags, fused parts or gaps G12C): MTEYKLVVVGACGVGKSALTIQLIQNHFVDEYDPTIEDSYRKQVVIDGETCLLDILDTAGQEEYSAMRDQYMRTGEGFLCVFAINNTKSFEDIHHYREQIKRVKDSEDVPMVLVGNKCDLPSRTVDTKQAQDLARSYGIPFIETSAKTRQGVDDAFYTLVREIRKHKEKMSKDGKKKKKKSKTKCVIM
K-Ras G12C(GMP-PNP) binding to BRAF RBD, sequence (P62937 whole entry): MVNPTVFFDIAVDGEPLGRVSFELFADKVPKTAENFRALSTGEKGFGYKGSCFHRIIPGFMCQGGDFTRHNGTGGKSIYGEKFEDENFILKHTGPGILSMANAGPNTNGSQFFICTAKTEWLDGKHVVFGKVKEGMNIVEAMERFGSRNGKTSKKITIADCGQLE

Another assay addresses NRAS G12C (Homo sapiens (Human), UniProt P01111+P62937, G12C). The assay can be described thus: Ras-Raf disruption/FRET/MOA assay (BRAF RBD, Cyclophilin A). The class given is biochemical. The following applies: read-out: NRAS G12C FRET data IC50. The procedure, abridged: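 First, 25 μM Cyclophilin A, 12.5 nM His6-Ras-GMPPNP and 50 nM GST-BRAF RBD are mixed with diluted compound at pH 7.3. Next, 3 h at 25° C. Then 10 nM anti-His Eu-W1024 plus 50 nM anti-GST allophycocyanin for 1.5 h before TR-FRET reading.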

In another assay the target is KRAS G13C (Homo sapiens (Human), UniProt P01116+P62937, G13C). The assay is described as above. The class given is biochemical. Particulars: read-out: KRAS G13C FRET IC50. The procedure, abridged:
(§2)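 TR-FRET read after 1.5 h with 10 nM anti-His Eu-W1024 and 50 nM anti-GST APC, following 3 h at 25 °C of GMPPNP-loaded His6-Ras (12.5 nM), GST-BRAF RBD (50 nM) and Cyclophilin A (25 μM) with compound from 30 μM final, 10 points, 3-fold. IC50 reported; pH 7.3 HEPES, 100 mM NaCl.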

The target in another assay is KRAS G12C (Homo sapiens (Human), UniProt P01116+P62937, G12C). Described as above. The class given is biochemical. Particulars: read-out: KRAS G12C FRET IC50. In outline:
as §2

In another assay the target is KRAS G12S (Homo sapiens (Human), UniProt P01116+P62937, G12S). The assay is described as above. Particulars: read-out: KRAS G12S FRET IC50. The class given is biochemical. In outline:
as §2

In the next assay the target is KRAS G12D (Homo sapiens (Human), UniProt P01116+P62937, G12D). Described as above. The class given is biochemical. Particulars: read-out: KRAS G12D FRET IC50. The procedure, abridged:
as §2

The target of the next assay is KRAS WT (Homo sapiens (Human), UniProt P01116+P62937). The description is as above. The class given is biochemical. The following applies: read-out: KRAS WT FRET data IC50. The procedure, abridged: as §2
KRAS WT, sequence (P01116 other isoform, or with tags, fused parts or gaps): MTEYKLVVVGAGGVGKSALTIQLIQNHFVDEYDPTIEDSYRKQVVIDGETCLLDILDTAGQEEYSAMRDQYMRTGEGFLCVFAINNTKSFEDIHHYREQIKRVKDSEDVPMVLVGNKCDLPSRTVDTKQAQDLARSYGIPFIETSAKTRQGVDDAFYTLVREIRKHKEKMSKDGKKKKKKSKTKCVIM
KRAS WT, sequence (P62937 whole entry): as the sequence (P62937 whole entry) above
In the next assay the target is KRAS G13D (Homo sapiens (Human), UniProt P01116+P62937, G13D). The assay is described as above. The class given is biochemical. Particulars: read-out: KRAS G13D FRET data IC50. In outline:
as §2

The target of another assay is KRAS G12V (Homo sapiens (Human), UniProt P01116+P62937, G12V). The description is as above. The class given is biochemical. Particulars: read-out: KRAS G12V FRET IC50. In outline:
as §2

The subject of the next assay is NCI-H358 (K-Ras G12C). The assay is described as follows: CellTiter-Glo cell viability assay, NCI-H358. Particulars: Homo sapiens, NCI-H358, 120 h, 5-day treatment; read-out: H358 Cell Viability assay data (K-Ras G12C, IC50). The class given is cell-based, human. In outline:
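NCI-H358 cells were treated with test compounds dispensed directly into the assay wells and incubated until day 5. Viability was then read by CellTiter-Glo luminescence after a ~30 min room-temperature equilibration, normalized to the DMSO average (×100), and fit with a four-parameter logistic curve.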

Assay [3] has as its system Capan-1 cells (K-Ras G12V). The assay is described as follows: CellTiter-Glo cell viability, Capan-1. The class given is cell-based, human. The following applies: Homo sapiens, CAPAN-1, 120 h, K-Ras G12V, 5-day treatment; read-out: Capan-1 Cell Viability IC50. In outline: as §1

pIC50: −log10 of the molar value. Some results are limits rather than exact numbers.

KRAS G13D, sequence (P01116 other isoform, or with tags, fused parts or gaps G13D): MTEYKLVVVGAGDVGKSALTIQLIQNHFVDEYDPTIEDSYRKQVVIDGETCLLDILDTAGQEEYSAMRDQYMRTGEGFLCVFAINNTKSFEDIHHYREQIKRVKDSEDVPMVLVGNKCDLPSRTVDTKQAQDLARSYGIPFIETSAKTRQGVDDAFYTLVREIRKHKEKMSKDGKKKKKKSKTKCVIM
KRAS G13D, sequence (P62937 whole entry): as the sequence (P62937 whole entry) above
KRAS G12V, sequence (P01116 other isoform, or with tags, fused parts or gaps G12V): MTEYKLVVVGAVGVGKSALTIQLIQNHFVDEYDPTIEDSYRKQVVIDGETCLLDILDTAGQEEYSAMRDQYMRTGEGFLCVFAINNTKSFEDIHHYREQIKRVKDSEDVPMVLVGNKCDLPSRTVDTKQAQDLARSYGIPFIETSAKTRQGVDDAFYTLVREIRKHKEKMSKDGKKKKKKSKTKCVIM
KRAS G12V, sequence (P62937 whole entry): as the sequence (P62937 whole entry) above
NRAS G12C, sequence (P01111 whole entry G12C): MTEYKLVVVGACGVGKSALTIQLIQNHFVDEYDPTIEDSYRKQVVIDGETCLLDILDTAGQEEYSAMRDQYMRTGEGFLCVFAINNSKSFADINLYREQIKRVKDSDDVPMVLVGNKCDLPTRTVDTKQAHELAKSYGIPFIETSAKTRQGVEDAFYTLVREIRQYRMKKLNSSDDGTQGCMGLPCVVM
NRAS G12C, sequence (P62937 whole entry): as the sequence (P62937 whole entry) above
KRAS G13C, sequence (P01116 other isoform, or with tags, fused parts or gaps G13C): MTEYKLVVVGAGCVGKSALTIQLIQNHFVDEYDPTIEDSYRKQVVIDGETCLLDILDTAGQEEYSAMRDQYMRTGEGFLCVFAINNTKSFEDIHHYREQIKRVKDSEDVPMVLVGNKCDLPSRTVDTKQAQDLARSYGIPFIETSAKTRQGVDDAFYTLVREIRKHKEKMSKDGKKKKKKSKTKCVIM
KRAS G13C, sequence (P62937 whole entry): as the sequence (P62937 whole entry) above
KRAS G12C, sequence (P01116-2 other isoform, or with tags, fused parts or gaps G12C): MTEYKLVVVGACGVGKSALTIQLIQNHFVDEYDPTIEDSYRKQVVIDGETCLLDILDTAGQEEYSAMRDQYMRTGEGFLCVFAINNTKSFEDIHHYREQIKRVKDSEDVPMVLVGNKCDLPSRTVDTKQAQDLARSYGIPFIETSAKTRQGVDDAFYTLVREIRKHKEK
KRAS G12C, sequence (P62937 whole entry): as the sequence (P62937 whole entry) above
KRAS G12S, sequence (P01116 other isoform, or with tags, fused parts or gaps G12S): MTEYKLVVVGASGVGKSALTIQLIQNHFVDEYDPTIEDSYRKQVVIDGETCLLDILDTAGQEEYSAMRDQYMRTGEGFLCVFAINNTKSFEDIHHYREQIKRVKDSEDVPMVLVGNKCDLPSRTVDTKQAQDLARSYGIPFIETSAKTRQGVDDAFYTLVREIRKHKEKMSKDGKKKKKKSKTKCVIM
KRAS G12S, sequence (P62937 whole entry): as the sequence (P62937 whole entry) above
KRAS G12D, sequence (P01116 other isoform, or with tags, fused parts or gaps G12D): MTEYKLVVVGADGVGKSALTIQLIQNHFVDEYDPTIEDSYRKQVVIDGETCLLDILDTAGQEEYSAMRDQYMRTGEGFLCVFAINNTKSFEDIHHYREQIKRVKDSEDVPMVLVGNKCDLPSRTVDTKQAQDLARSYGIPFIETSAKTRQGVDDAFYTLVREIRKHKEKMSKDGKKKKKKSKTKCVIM
KRAS G12D, sequence (P62937 whole entry): as the sequence (P62937 whole entry) above

As to `CCn1c(-c2cccnc2[C@H](C)OC)c2c3cc(ccc31)-c1cc(O)cc(c1)C[C@H](NC(=O)[C@H](C(C)C)N(C)C(=O)[C@H]1C[C@@H]1F)C(=O)N1CCC[C@H](N1)C(=O)OCC(C)(C)C2` [Compound A161], the pIC50 (in assay [1]; in [2]; on NRAS G12C; at KRAS G13C; at KRAS G12C; at KRAS G12S) was 6.00 to 7.00 in each case. Besides, the pIC50 (commonly −log10 of the IC50, conventionally taken in molar units) on KRAS G12D was 6.00 to 7.00; at KRAS WT, 6.00 to 7.00; on KRAS G13D, 6.00 to 7.00; on KRAS G12V, 6.00 to 7.00; in the assay on NCI-H358 (K-Ras G12C) it was under 5.00; in assay [3], 6.00 to 7.00.

As for `CCn1c(-c2cccnc2[C@H](C)OC)c2c3cc(ccc31)-c1cc(O)cc(c1)C[C@H](NC(=O)[C@H](C(C)C)N(C)C(=O)[C@@H]1[C@@H]3CNC[C@@H]31)C(=O)N1CCC[C@H](N1)C(=O)OCC(C)(C)C2` [Compound A164], the pIC50 (in [1]; in assay [2]; at NRAS G12C; at KRAS G13C; on KRAS G12C; at KRAS G12S) was 7.00 to 8.00 in each case. Also, the pIC50 at KRAS G12D was 7.00 to 8.00; on KRAS WT it was 7.00 to 8.00; on KRAS G13D, 7.00 to 8.00; on KRAS G12V, 7.00 to 8.00; with NCI-H358 (K-Ras G12C), 6.00 to 7.00; in [3], 6.00 to 7.00.

As for `CCn1c(-c2cccnc2[C@H](C)OC)c2c3cc(ccc31)-c1cc(O)cc(c1)C[C@H](NC(=O)[C@H](C(C)C)N(C)C(=O)[C@H]1CN[C@@H]3CCO[C@H]13)C(=O)N1CCC[C@H](N1)C(=O)OCC(C)(C)C2` [Compound A231], the pIC50 is 6.00 to 7.00 in assay [1]; under 5.00 in [2]; 7.00 to 8.00 at NRAS G12C; 7.00 to 8.00 at KRAS G13C; 7.00 to 8.00 on KRAS G12C; 6.00 to 7.00 at KRAS G12S. For the same compound, the pIC50 is 7.00 to 8.00 on KRAS G12D; 7.00 to 8.00 on KRAS WT; 7.00 to 8.00 on KRAS G13D; 6.00 to 7.00 on KRAS G12V; under 5.00 in the assay with NCI-H358 (K-Ras G12C); 5.00 to 6.00 in assay [3].

Regarding `CCn1c(-c2cccnc2[C@H](C)OC)c2c3cc(ccc31)-c1csc(n1)C[C@H](NC(=O)[C@H](C(C)C)N(C)C(=O)N1C[C@@H]3C[C@H]1CN3C)C(=O)N1CCC[C@H](N1)C(=O)OCC(C)(C)C2` [Compound A314], the pIC50 (in assay [1]; in [2]; on NRAS G12C; at KRAS G13C; on KRAS G12C; at KRAS G12S) was 6.00 to 7.00 throughout. In addition, the pIC50 (on KRAS G12D; on KRAS WT; on KRAS G13D; on KRAS G12V; in the assay with NCI-H358 (K-Ras G12C); in [3]) was 6.00 to 7.00 each time.

Take `CCn1c(-c2cccnc2[C@H](C)OC)c2c3cc(ccc31)-c1cc(O)cc(c1)C[C@H](NC(=O)[C@H](C(C)C)N(C)C(=O)N1CC(OC)C1)C(=O)N1CCC[C@H](N1)C(=O)OCC(C)(C)C2` [Compound A364]: the pIC50 in assay [1] is 7.00 to 8.00; in assay [2], 6.00 to 7.00; on NRAS G12C, 7.00 to 8.00; at KRAS G13C, 7.00 to 8.00; at KRAS G12C, 7.00 to 8.00; at KRAS G12S it was 6.00 to 7.00. In addition, the pIC50 at KRAS G12D was 6.00 to 7.00; on KRAS WT, 6.00 to 7.00; at KRAS G13D, 6.00 to 7.00; on KRAS G12V, 6.00 to 7.00; with NCI-H358 (K-Ras G12C), 6.00 to 7.00; in assay [3], 7.00 to 8.00.
